The values below come from US9045401B2, “Methods for treating or ameliorating a melanoma and killing melanoma cells” (THE REGENTS OF THE UNIVERSITY OF CALIFORNIA, priority 2007, dated 2015).

Series [1] has as its system HUVEC cells. The experiment in a line: endothelial cell tube formation on Matrigel. In kind it is cell-based, human. The method, then:
Endothelial Cell Tube Formation. 96-well plates were coated with 200 uL matrigel per well and stored at 4° C. until use. HUVEC cells were harvested and cell suspensions were prepared at a density of 200,000/ml., and added at 100 ul per well to the plates. […] The plates were incubated at 37° C. under standard incubator conditions and the results were observed microcopically for tube formation.

Series [2] relates to chick chorioallantoic membrane. The experiment in a line: bFGF-induced angiogenesis in chick chorioallantoic membrane. Format: in vivo. To be noted: local introduction, 100 ng bFGF disks, 72 hours. The method, then: (§1) FIG. 31(A-F): Transgenic Tg(fli1:EGFP) zebrafish embryos in which GFP is expressed in endothelial cells were incubated without (A) or with increasing concentrations of ScA: 80 nM in FIG. 31(B), 160 nM in FIG. 31(C), 300 nM in FIG. 31(D) 1.6 μM in FIG. 31(E) or 3 μM in FIG. 31(F), and blood vessel morphology recorded by fluorescence microscopy. FIG. 31(G) Filter disks impregnated with 100 ng of bFGF were placed on the chorioallantoic membrane of eleven day old chicks to induce angiogenesis in the absence or presence of ScA, as shown. After 72 hours (h), disks were removed and the vascularity of the underlying chorioallantoic membrane determined by direct counting of branch points using a dissecting microscope. FIG. 31(H): NB7 neuroblastoma cells lacking caspase 8 (filled bar) or NB7-C8 cells reconstituted for caspase 8 expression (open bars) were seeded into ten day old chick chorioallantoic membranes to form tumors. After 72 hours, ScA was added topically to each growing tumor mass. Tumors were harvested and resected on day 8, and mass (wet weight) determined. Data shown is the mean±SD (N=8-12).
(§2) Chick Chorioallantoic membrane studies. The CAM studies were performed using 10 day old chick embryos as we've previously described (36). […]

Series [3] deals with NB7-C8 neuroblastoma tumor cells. Description: neuroblastoma tumor growth on chick chorioallantoic membrane. Format: in vivo. To be noted: 100 picomoles ScA topically after 72 hours, harvested day 8; p<0.002; listed as ScA. The method, then: as §1
Tumors were then treated topically with 100 picomoles of ScA, and allowed to grow a further five days before being harvested.
as §2

Series [4] has as its system Jurkat cells. The experiment in a line: apoptosis of Jurkat cells by FACS analysis of DNA content. The note with it: 50 or 300 nM, 6 hours. Format: cell-based. Here is the method:
FIG. 28(B): A549 cells were fixed and costained using antibodies directed against ceramide (red channel) (Bars in A/B=[…]). Arrows indicate regions of “blebbing.” The nuclear compartment was visualized using DAPI to stain DNA (blue channel). The assessments were performed two hours after treatment with 300 nM ScA. FIG. 28(C): Immunoblot analysis of Jurkat cells was performed following treatment with 100 nM ScA. 25 μg of cell lysates was probed for caspases 8, 3 and 9 and for PARP and actin (loading control) as indicated. FIG. 28(D): Caspase 8 deficient (Casp 8), FADD deficient (FADD −) or parental Jurkat cells (Jurkat) were incubated with 50 or 300 nM for 6 hours and analyzed for the presence of apoptotic cells via FACs analysis of DNA content. Results shown are the mean and standard error of triplicate determinations. […] Viability was measured by XTT assay after 72 hours, and normalized to controls not treated with drug. FIG. 28(F): similarly, the viability of neuroblastoma cultures deficient in caspase expression, or reconstituted for caspase 8 expression, was determined as for the A549 cells above. […]
FACS analysis Cell viability was analyzed by flow cytometry following propidium iodide (PI) staining, as described elsewhere (37). […] The extent of apoptosis was determined by plotting PI fluorescence versus the forward scatter parameter, using CELL QUEST™ software.

Series [5] concerns A-549 cells. The experiment in a line: cell toxicity studies by microscopy. In kind it is cell-based, human. The note with it: for cell state by microscopy: 24 h. The method, then: FIG. 7 illustrates cell toxicity studies using A-549 cells and somocystinamide A (ScA); FIG. 7A illustrates microscopy images of cells with DMSO (1%) as a control at 24 h; FIG. 7B-ScA (WG-144) on A-549 cells at 100 nM 24 h; FIG. 7C-ScA (WG-144) on A549 cells 1.0 uM 24 h; FIG. 7D-ScA (WG-144) on A549 cells, 10 uM, 24 h. In FIG. 7A, the negative control (no ScA) the live cells are confluent.
FIG. 28(B): A549 cells were fixed and costained using antibodies directed against ceramide (red channel) (Bars in A/B=[…]). Arrows indicate regions of “blebbing.” The nuclear compartment was visualized using DAPI to stain DNA (blue channel). The assessments were performed two hours after treatment with 300 nM ScA. FIG. 28(C): Immunoblot analysis of Jurkat cells was performed following treatment with 100 nM ScA. 25 μg of cell lysates was probed for caspases 8, 3 and 9 and for PARP and actin (loading control) as indicated. FIG. 28(D): Caspase 8 deficient (Casp 8), FADD deficient (FADD −) or parental Jurkat cells (Jurkat) were incubated with 50 or 300 nM for 6 hours and analyzed for the presence of apoptotic cells via FACs analysis of DNA content. Results shown are the mean and standard error of triplicate determinations. FIG. 28(E): A549 cells subjected to lentivirus-delivered shRNA-mediated knockdown of caspase 8, or treated with a scrambled shRNA lentivirus. Cells were then cultured in the presence of increasing doses of ScA, as indicated. Viability was measured by XTT assay after 72 hours, and normalized to controls not treated with drug. FIG. 28(F): similarly, the viability of neuroblastoma cultures deficient in caspase expression, or reconstituted for caspase 8 expression, was determined as for the A549 cells above. Both experiments are representative, with each point shown the mean±SE of triplicate wells.

Series [6] can be described thus: chemical stability. Format: physicochemical.
Series [7] can be described thus: solubility in aqueous media. Format: physicochemical.
Series [8] relates to mouse neuro-2a neuroblastoma cells. The note with it: cytotoxicity; cited from earlier work.

Converted amounts (≈) assume the structure as drawn. “Also recorded” adds a separate entry of the source.

Turning to `C=CC/C=C/N(C)C(=O)CCCCCCCC/C=C/[C@H](CSSC[C@@H](/C=C/CCCCCCCCC(=O)N(C)/C=C/CC=C)NC(C)=O)NC(C)=O` [somocystinamide A, Somocystinamide A], the “tube formation of HUVEC/matrigel” value in series [1] (1 μM, 100 μM and 10 nM, FIG. 3) was “inhibits tube formation”. Besides, in series [1] (48 hours, FIG. 30B, listed as ScA), the “endothelial cell tube formation” value was “potently blocked endothelial cell tube formation; also recorded: endothelial cell tube formation was disrupted in dose-dependent manner”. Further, the growth factor-induced angiogenesis entry in series [2] is “potently blocked growth factor-induced angiogenesis”. For the same compound, the “tumor growth / tumor mass (wet weight)” value in series [3] was “significantly decreased; also recorded: inhibition of tumor growth selectively in the caspase 8-expressing tumor cells”. Moreover, in series [4] (Jurkat cells lacking FADD), the ScA-mediated killing entry is “protected from ScA-mediated killing”. Besides, in series [4] (caspase 8-deficient Jurkat cells compared to wild type), the apoptosis entry was “dramatically decreased”. Further, in series [5] (100 nM ScA, FIG. 28A), the “cell morphology, bright field microscopy” value was “induces a blebbing morphology”. In addition, the “cell state by microscopy” value in series [5] (100 nM) was “transitioning to apoptosis”; in series [5] (1.0 uM) it was “in a state of apoptosis but no lysis”; in series [5] (10 uM), “in total lysis”. Moreover, in series [6] (apart from hydrolytic degradation of the unsaturated amide), the storage stability result is “otherwise quite stable”. The acid sensitivity entry in series [6] (converts to compound 2) is reported as “highly acid-sensitive”. In addition, the solubility result in series [7] was “limited solubility”. For the same compound, in series [8], the IC50 was 1.4 µg/mL (≈ 1.84 µM).
